Counter-ions that a name gives are not always drawn.
Assays:
[1] = system: Chinese hamster V79-379 lung fibroblasts; test: Uptake of phthalocyanines into V79 cells
Procedure: Chinese hamster V79-379 lung fibroblasts were grown in monolayer culture in McCoy's 5A medium (Gibco Laboratories, Grand Island, N.Y.) augmented with 10% calf serum and buffered with 20 mM HEPES (pH 7.4).
Total uptake was determined by scraping the phthalocyanine-treated monolayer, collecting the cells on a glass-fiber filter, and extracting the phthalocyanine in ethanol, as previously described by Ramakrishnan, et al., 1989. (Ramakrishnan, N., M. E. Clay, M. F. Horng, A. R. Antunez, & H. H. Evans, “DNA Lesions and DNA Degradation in Mouse Lymphoma L5178Y Cells After Photodynamic Treatment Sensitized by Chloroaluminum Phthalocyanine”, Photochem. Photobiol, in press, 1989). The amount of drug was determined by absorption at 674 nm and expressed relative to the number of cells, as measured in a Coulter cell counter on an aliquot of the cell population. Controls included cells not treated with drug, medium alone, and drug-containing medium without cells.
The cells were treated with 1 μM AlPcCl (from Eastman Kodak, Rochester, N.Y.) or with phthalocyanine compositions I-VI (0.5-1.0 μM final concentration in the medium) for 18 hours by adding the appropriate volume of a 1.0 mM stock solution in dimethylformamide (DMF) to the culture medium. The growth medium was replaced with 4 mL Hank's balanced salt solution (HBSS), and the cells were irradiated. The light source was a 500 W tungsten-halogen lamp located approximately 29 inches below the surface of a glass exposure tray. The visible light administered to the cells was filtered to allow passage of only that portion of the visible spectrum above 600 nm (Lee Primary red filter No. 106, Vincent Lighting, Cleveland, Ohio). The fluence rate was approximately 0.074 kJ/m^2/s at the level of the cell monolayer.
V79 cells Chinese hamster lung fibroblasts were cultured using the cell culture methods described above. The phthalocyanines listed in table 2 were added to the cultures typically at concentrations of 1 μM, 2 μM, and/or 4 μM and incubated for 18 hours, after which aliquots of the cells were counted and other aliquots were collected on a glass fiber filter. When the filters were dry, the phthalocyanines were extracted into ethanol and the absorption determined at the peak wavelength, usually 668 nm. Values were converted to nmoles taken up by 10^6 cells, using an extinction coefficient of 2.93×10^5.

[2] = system: Chinese hamster V79-379 lung fibroblasts; test: Growth delay of V79 cultures after phthalocyanine and red light; format: cell-based; details: V79 cells; for Growth Delay (12 kj/m^2), Efficiency Relative to 1 μM (AlPcCl): 18 hours, 12 kJ/m^2 red light
Procedure: At the time of light exposure, there were approximately 1.5×10^5 cells per 25 cm^2 flask. Following irradiation, the HBSS was replaced by 10 mL of fresh complete growth medium, and the cultures were returned to the 37° C. incubator. At various times before and after irradiation, duplicate cultures were trypsinized and counted. Controls included untreated cells and cells treated with light alone or drug alone. In addition, in each experiment, the drug to be tested was compared to a standard treatment, i.e. 1 μM AlPcCl for 18 hours followed by 12 kJ/m^2 light.
The inhibition of V79 culture growth was measured during a three day period following red light irradiation (12 kJ/m^2) of phthalocyanine-pretreated cells. With each of the active compounds, as well as with AlPcCl, there was an initial decrease in cell density, as dead cells became detached from the monolayer. Thereafter, the cell number per flask increased, as living cells grew and divided. The time for the cell density to recover to the level at the time of light exposure was considered the growth delay. […] The ratio of the growth delay for the test photosensitizer and the growth delay for AlPcCl measured in the same experiment is recorded in Table 1. There was less inhibition of culture growth when cells were exposed to compounds III, V, or VI as expected from the poor cellular uptake of these drugs.

[3] = system: Chinese hamster V79-379 lung fibroblasts; test: Clonogenic cell survival of V79 cells after photodynamic treatment; format: cell-based; details: for CF10(AIPcCI)/CF10 (Pc) / F10(AIPcCI)/F10 (Pc): 1.0 μM; for CF10(AIPcCI)/CF10 (Pc): CF10 = product of intracellular concentration and fluence reducing survival to 10%; for F10(AIPcCI)/F10 (Pc): F10 = fluence reducing cell survival to 10%
Procedure: Cells were irradiated at a density of approximately 2×10^6 per 25 cm^2 flask. Immediately after irradiation, the cell monolayer was treated with trypsin, and appropriate aliquots were plated in triplicate to give 100 to 200 colonies in each 10-cm Petri dish. Cell survival was determined by the ability of the cells to form colonies containing at least 50 cells. The response of cells treated with 1 μM AlPcCl and light was compared in each experiment.
Photocytotoxicity of the phthalocyanines compounds I to VI was also assessed by clonogenic assay (Table 1, FIG. 1). In all experiments, 1 μM AlPcCl was included for comparison purposes. From the survival curves (FIG. 1), the fluence reducing the cell survival to 10% (F10) was obtained. The ratio of the F10 for AlPcCl and the F10 for the test compound is recorded in Table 1. Compounds I and II appear to be nearly as efficient photosensitizers as AlPcCl, while compound IV (assayed at half the concentration) was almost twice as efficient as the standard AlPcCl. […] However, in spite of the low efficiency of compound V in inhibiting cell growth, survival measurements were made for this compound, because it was taken up into V79 cells somewhat more efficiently than compounds III and VI.
In order to take differences in cellular uptake into consideration in the assessment of the relative efficiency of these phthalocyanines as photosensitizers of V79 cells, the survival data were replotted against the product of intracellular phthalocyanine concentration and light fluence (FIG. 2). From these curves, the product of intracellular concentration and light fluence reducing survival to 10% (CF10) was obtained, and comparisons of the values for AlPcCl and the test compounds are recorded in Table 1. By this and the other criteria, compound IV appears to be the most efficient photosensitizer. However, when consideration is given to the lesser cell uptake of compound V, it appears to be about as strong a photosensitizer as compound IV.
Using the cell culture methods described above, V79 cells Chinese hamster lung fibroblasts were treated with either 0.5 or 1.0 μM of the phthalocyanines listed in Table 3. About 18 hours thereafter, the cells were irradiated with increasing doses of 675 nm broad band red light from a 500 W tungsten-halogen lamp fitted with a 600 nm high pass filter, to determine the light dosage that would kill 90% of the phthalocyanine treated cells. Where 90% of the cells were not killed, the maximum percent of cells killed were determined, (expressed as % survival) and the related light dosage recorded.

L5178Y cells = test: Induction of apoptosis (DNA ladder) in L5178Y cells after PDT; format: cell-based, Mouse; details: for C × F Ld90, Minimum Demonstrated Condition to Induce Apoptosis: product of concentration and fluence
Procedure: The cells were used while in exponential growth. Stock solutions of either 0.5 or 1 mM of PcIV, PcXII, PcX, PcXVIII were prepared in dimethylformamide unless otherwise indicated and added to the 10 mL medium at a rate of 1 μL per mL. After allowing 18 hours for uptake of the phthalocyanine into the cells, the flasks containing the cultures were placed on a glass exposure tray above a 500-W tungsten-halogen lamp. The exposure tray was fitted with a 600-nm high-pass filter. Flasks were exposed to various fluences of red light (up to 30 kJ/m^2) at a fluence rate of approximately 74 W/m^2). After irradiation, the cells were collected by centrifugation.
The aliquots were plated in sufficient numbers to produce 50-200 colonies. The dishes were kept in an incubator at 37° C. in an atmosphere of 5% CO2 and 95% air for 10-14 days to allow viable cells to form colonies. Colonies were counted by eye. […] The plating efficiencies of the treated cells are normalized to the plating efficiencies of control cells in each experiment.
Cells were treated with various concentrations of the compounds listed in the table and various light fluences. DNA gels were prepared and examined for the characteristic “ladder” pattern of DNA fragments. For each Pc, the minimum total PDT dose tested (calculated as the product of the minimum phthalocyanine concentration and the minimum fluence) which produced visible DNA fragments is recorded. […] PcXVIII was also added at 0.5 and 1.0 μM.

[4] = system: RIF-1 (radiation-induced fibrosarcoma) tumors; test: PDT of RIF-1 implanted tumors; format: in vivo, C3H/HeN mice; set-up: key to Tumor Responses at 24 hours: complete: no evidence of any tumor mass in any animal; only the scar from the photodynamic therapy was evident.; near complete: evidence of any tumor mass in four or five animals; only some tumor mass in one or two animals.; substantial: a significant tumor shrinkage occurred in all animals. In some animals the tumor response was complete, yet in others the response was not complete.; moderate: some tumor shrinkage was evident in some animals. In animals with some tumor shrinkage, scar formation was evident.; slight: some tumor decrease occurred in one or two mice; details: 1 mg/kg in corn oil, 675 nm
Procedure: The relative effectiveness at reducing tumor volume of selected phthalocyanine compounds at a given dosage was compared in vivo. RIF-1, i.e., radiation-induced fibrosarcoma, tumors were implanted into the backs of C3H/HeN mice. One tumor was implanted per mouse. Each of the phthalocyanine compounds listed in Table 7 was sonicated and vortexed in corn oil to produce a suspension. When the tumors reached […] in diameter and 2-3 mm in thickness, each mouse received 1 mg/kg in 0.1 mL of the corn oil, of the phthalocyanine suspension. For comparison, select mice received a conventional photosensitizer; either 5 mg/kg of chloroaluminum phthalocyanine tetrasulfonate, herein also referred to as “AlPcTS” in phosphate buffered saline or 5 mg/kg of Photofrin®-II in 5% dextrose. Twenty-four hours after the photosensitizers were administered, the tumors were irradiated with visible radiation delivered by an argon-pumped dye laser. The mice that received a phthalocyanine photosensitizer received light having a wavelength of 675 nm and the mice that received the Photofrin® II photosensitizer received light having a wavelength of 630 nm. Each tumor received 135 J/cm^2 of radiation. Tumor size was measured every day using calipers. The initial tumor volume was 50±10 mm^3. Tumor volume was calculated according to the hemiellipsoid model by the formula: V=½(4π)/3×(½×(w/2))×h
• complete—no evidence of any tumor mass in any animal; only the scar from the photodynamic therapy was evident. • near complete—evidence of […] in four or five animals; only some tumor mass in one or two animals. • substantial—a significant tumor shrinkage occurred in all animals. In some animals the tumor response was complete, yet in others the response was not complete. • moderate—some tumor shrinkage was evident in some animals. In animals with some tumor shrinkage, scar formation was evident. • slight—some tumor decrease occurred in one or two mice.

[5] = system: human skin keratome biopsies; test: Penetration of topically applied PcIV and salts into human skin, confocal fluorescence microscopy; format: in vitro ADME
Procedure: Human skin absorption of PcIV was analyzed by fluorescence confocal microscopy. PcIV fluorescence, upon activation with a HeNe laser at 633 nm, was visualized using a 650 long pass filter. Briefly, 0.4 mm thick human keratomes were removed from the gluteal region of healthy volunteers and divided into 1.5 cm×1.5 cm squares of skin. Upon application of PcIV to the epidermis in a vehicle of ethanol and propylene glycol, visualization of penetration of PcIV was achieved by fluorescence. Pc 4 was then prepared as PcIV-pyruvate and PcIV-HCl and applied in the same vehicle as Pc 4 to the epidermis. Three concentrations, namely, 0.1 mg/mL, 0.05 mg/mL, and 0.01 mg/mL were tested per PcIV formulation. Skin was incubated at 37° C. for 1, 2, and 4 hours, along with vehicle controls. […] Maximum PcIV fluorescence was detectable using laser transmission of 3% for the 0.1 mg/mL and 30% for the 0.01 mg/mL. Both PcIV.pyruvate and PcIV.HCl however could be visualized with a laser transmission of 2-3% for the 0.1 mg/mL and 7-9% for the 0.01 mg/mL concentrations.
The ability of PcIV and the newly prepared PcIV salts (HCl and pyruvate) to penetrate into the epidermis of keratome derived biopsies was examined. The time course of penetrance as well as the effect of dose of the PcIV compounds were evaluated. PcIV and the PcIV.HCl and PcIV.pyruvate salts were resuspended in ethanol (100%, 1 part PcIV, 499 parts ethanol) and then diluted to final concentrations in a 30% Propylene Glycol 70% Ethanol mixture.
Keratome biopsies of normal skin were obtained from normal volunteers after written consent according to UHHS IRB protocol # 05-95-03. To date, seven experiments have been performed. The range of age for volunteers was 20-40 yrs. Individuals represented Fitzpatrick skin types between I-III. Skin biopsies were held in PBS following the keratome procedure until processed for PcIV Application (less than 1 hr). The keratome skin samples (1.5 cm^2) were overlayed onto sterile gauze in 80 mm tissue culture petri dishes epidermal side down. PcIV compounds were then applied to the corners of the sterile gauze and allowed to “wick” through the gauze and contact the epidermis of the skin for the indicated times. Following the incubation, the tissue was removed from the gauze and washed three times in phosphate buffered saline and held, in PBS, until analysis by confocal microscopy. Confocal images were acquired using a 20×N.A. 0.5 water immersion objective on a Zeiss 510 confocal microscope. PcIV fluorescence was elicited using a 633 nm wavelength for excitation, and collected with a 633 nm dichroic mirror and 650 nm long-pass filter.

SMILES: [Cl][Al]1[n]2c3c4ccccc4c2N=C2N=C(N=c4c5ccccc5c([n]41)=NC1=NC(=N3)c3ccccc31)c1ccccc12 [AlPcCl, chloroaluminum phthalocyanine, reference compound]
- Uptake, Efficiency Relative to 1 μM (AlPcCl) ([1]; V79 cells, 1.0 μM, 18 hours): 1.0
- uptake ([1]; V79 cells, 1 μM, mean±S. D., 25 determinations): 0.723±0.172 nmole/10^7 cells
- growth delay ([2]; 1 μM for 18 hours and 12 kj/m^2 light): approximately 24 hours
- Growth Delay (12 kj/m^2), Efficiency Relative to 1 μM (AlPcCl) [2]: 1.0
- CF10(AIPcCI)/CF10 (Pc) [3]: 1.0
- F10(AIPcCI)/F10 (Pc) [3]: 1.0

SMILES: CN(C)CCC[Si](C)(C)[O][Al]1[n]2c3c4ccccc4c2N=C2N=C(N=c4c5ccccc5c([n]41)=NC1=NC(=N3)c3ccccc31)c1ccccc12 [Compound I, AlPcOSi(CH3)2(CH2)3N(CH3)2]
- Growth Delay (12 kj/m^2), Efficiency Relative to 1 μM (AlPcCl) [2]: 2.1
- CF10(AIPcCI)/CF10 (Pc) [3]: 0.51
- F10(AIPcCI)/F10 (Pc) [3]: 0.94

SMILES: C[Si](C)(CCCCNS(C)(=O)=O)O[Si]1(O)n2c3c4ccccc4c2N=C2N=C(N=c4c5ccccc5c(n41)=NC1=NC(=N3)c3ccccc31)c1ccccc12 (stereo not shown) [IX, HOSiPcOSi(CH3)2(CH2)4NHSO2CH3]
- Uptake Into V79 Cells, 1 μM ([1]; 1 μM, 18 hours): 0.1 ± 0.1 n Moles/10^6 cells
- Uptake Into V79 Cells, 4 μM ([1]; 4 μM, 18 hours): 1.8 ± 0.8 n Moles/10^6 cells
- n Moles/10^6 Cells/μM (composite uptake value) ([1]; V79 cells, average of all data, asterisk: listed value is for 1 μM, average would be higher): 0.3 n Moles/10^6 Cells/μM
- Maximum Effect (% survival at kj/m^2) ([3]; 0.5 μM, at 9 kj/m^2): 44% at 9
- Fluence, Minimum Demonstrated Condition to Induce Apoptosis (L5178Y cells; 0.3 μM): 12.0 kJ/m^2
- C × F Ld90, Minimum Demonstrated Condition to Induce Apoptosis (L5178Y cells; 0.3 μM): 3.6 kJ/m^2
- Fluence, Minimum Demonstrated Condition to Induce Apoptosis (L5178Y cells; 0.5 μM): 8.0 kJ/m^2
- C × F Ld90, Minimum Demonstrated Condition to Induce Apoptosis (L5178Y cells; 0.5 μM): 4.0 kJ/m^2
- Fluence, Minimum Demonstrated Condition to Induce Apoptosis (L5178Y cells; 1.0 μM): 12.0 kJ/m^2
- C × F Ld90, Minimum Demonstrated Condition to Induce Apoptosis (L5178Y cells; 1.0 μM): 12.0 kJ/m^2
- Tumor Responses at 24 hours ([4]; 135 J/cm^2, light 24 h after dosing): near complete
- Doubling Time of Initial Tumor Volume after PDT ([4]; 135 J/cm^2, controls 4 days): 11 days

SMILES: CN(C)CCC[Si](C)(C)O[Si]1(O)n2c3c4ccccc4c2N=C2N=C(N=c4c5ccccc5c(n41)=NC1=NC(=N3)c3ccccc31)c1ccccc12 (stereo not shown) [PcIV-HCl, HOSiPcOSi(CH3)2(CH2)3N(CH3)2(HCl)]
- effect of salt formulation on penetration through the skin [5]: does not hinder the penetration

— patent US8211883B2, “Topical delivery of phthalocyanines” (priority 2004, dated 2012)
